{"source": "patent US9272026B2", "about": "“HLA-A*1101-restricted WT1 peptide and pharmaceutical composition comprising the same” (International Institute of Cancer Immunology, Inc., priority 2006, dated 2016)", "key": {"[1]": {"test_system": "human peripheral blood mononuclear cells having HLA-A*0201", "settings": "human PBMCs having HLA-A*0201; Non-patent Document 11; cited from earlier work"}, "human cells": {"test_system": "human cells", "settings": "HLA-A*2402; Non-patent Document 12; cited from earlier work"}, "B-LCLs expressing WT1 [2]": {"test_system": "B-LCLs expressing WT1", "assay": "51Cr release assay: cytotoxic activity of CTL against cell expressing WT1 endogenously", "settings": "B-LCL into which a human WT1 gene is introduced; FIGS. 1, 2, 4, 5 and 7", "protocol": "(§1) The PBMCs were then seeded to a 24-well cell culture plate at the density of about 1×10^7 in RPMI 1640 medium containing 10% FCS, and a culture supernatant of B95-8 cells (cells producing EB virus) were added. They were cultured at 37° C. with 5% CO2 for about 1 month. B-LCL cells transformed with EB virus, which are B-cell tumor cells, were obtained. […] B-LCL cells were pulsed by incubating them with 20 μg/ml of WT1251, WT1279, WT1312, WT1313, WT1338, WT1378, WT1386, WT1415 or WT1436 for 2 hours, and irradiated with 80 Gy of radiation. The resulting B-LCL cells (hereinafter referred to as B-LCL cells pulsed with a WT1 peptide) were used as antigen-presenting cells for the following experiments.\n(§2) 3×10^6 of autologous PBMCs were cultured in a 24-well cell culture plate in complete medium (45% RPMI, 45% AMI-V medium and 10% human AB serum) containing 20 μg/ml of WT1251, WT1279, WT1312, WT1313, WT1338, WT1378, WT1386, WT1415 or WT1436 at 37° C. with 5% CO2 for 1 week to obtain responding cells. 2×10^6 of the resulting responding cells were cocultured with 1×10^6 of the B-LCL cells pulsed with the same WT1 peptide in complete medium for 1 week (first stimulation). The PBMCs were coculutured with the B-LCL cells pulsed with the WT1 peptide three more times (second to fourth stimulations) under the conditions under which 20 IU/ml (final concentration) of IL2 was added as follows: second stimulation: two times every other day from 3 days after the initiation of stimulation; third and fourth stimulations: three times at intervals of one day from the day after the initiation of stimulation. The resulting cells were concentrated using Negative Selection Columns Gravity Feed Kit (StemSp) so that the ratio of CD8-positive T cells became about 80%, and cocultured with the B-LCL cells pulsed with the WT1 peptide (fifth stimulation). CD8-positive T cells (CTLs) obtained 5 days after the final stimulation were used for measurement of the cytotoxic activity.\n(§3) The cytotoxic activity of CTLs was measured using ^51Cr release assay. CTL cells (hereinafter referred to as effector cells) were mixed at the ratio (E/T ration) of 1:1 to 30:1 in 200 μl of medium with target cells into which ^51Cr had been incorporated, and cultured in a 96-well cell culture plate at 37° C. with 5% CO2 for 4 hours. B-LCL cells pulsed with the same WT1 peptide as that used for induction of CTLs (BLCL-Ps), and B-LCL cells without pulsing with a WT1 peptide (BLCL-NPs) were used as target cells. After the culture, the supernatants were collected by centrifugation. The amounts of ^51Cr released into the supernatants were measured using a liquid scintillation counter. The cytotoxic activity (%) was determined using the following formula: (^51Cr release in supernatant of sample−Spontaneous ^51Cr release)/(Maximum ^51Cr release−Spontaneous ^51Cr release)×100 wherein Spontaneous ^51Cr release is ^51Cr release observed when the target cells into which ^51Cr had been incorporated were cultured alone under the same condition, and Maximum ^51Cr release is ^51Cr release observed when the target cells into which ^51Cr had been incorporated were completely lysed using 1% Triton X-100.\n(§4) The cytotoxic activity of CTLs induced with WT1251, WT1279, WT1313, WT1338 or WT1386 against B-LCLs expressing WT1 was determined using the method described above."}, "[3]": {"test_system": "B-LCL cells pulsed with the same WT1 peptide (BLCL-Ps)", "assay": "51Cr release assay: cytotoxic activity of CTLs induced with WT1 peptide against peptide-pulsed B-LCL cells", "settings": "CTLs induced with 20 μg/ml peptide; E/T ratio 1:1 to 30:1; 4 hours; FIGS. 1-9", "protocol": "The PBMCs were then seeded to a 24-well cell culture plate at the density of about 1×10^7 in RPMI 1640 medium containing 10% FCS, and a culture supernatant of B95-8 cells (cells producing EB virus) were added. They were cultured at 37° C. with 5% CO2 for about 1 month. B-LCL cells transformed with EB virus, which are B-cell tumor cells, were obtained. […] B-LCL cells were pulsed by incubating them with 20 μg/ml of WT1251, WT1279, WT1312, WT1313, WT1338, WT1378, WT1386, WT1415 or WT1436 for 2 hours, and irradiated with 80 Gy of radiation. The resulting B-LCL cells (hereinafter referred to as B-LCL cells pulsed with a WT1 peptide) were used as antigen-presenting cells for the following experiments. […]\nThe cytotoxic activity of CTLs was measured using ^51Cr release assay. […] The amounts of ^51Cr released into the supernatants were measured using a liquid scintillation counter. The cytotoxic activity (%) was determined using the following formula: (^51Cr release in supernatant of sample−Spontaneous ^51Cr release)/(Maximum ^51Cr release−Spontaneous ^51Cr release)×100 wherein Spontaneous ^51Cr release is ^51Cr release observed when the target cells into which ^51Cr had been incorporated were cultured alone under the same condition, and Maximum ^51Cr release is ^51Cr release observed when the target cells into which ^51Cr had been incorporated were completely lysed using 1% Triton X-100."}, "B-LCLs expressing WT1 [4]": {"test_system": "B-LCLs expressing WT1", "protocol": "as §1, §2, §3, §4"}, "[5]": {"test_system": "PBMCs from HLA-A*1101-positive healthy donors", "assay": "Induction of CTL by WT1 peptide dimer and related peptides using PBMCs from HLA-A*1101-positive healthy donors 1-3", "assay_type": "cell-based, human", "settings": "FIGS. 10-14", "source_text": "After the culture, the supernatants were collected by centrifugation.\nAbilities of the resulting WT1378 peptide dimer, WT1378 peptide, modified WT1378 peptide (G→I) (SEQ ID No: 11) and modified WT1378 peptide (G→V) (SEQ ID No: 12) as well as WT1379 peptide (SEQ ID No: 13, as disclosed in WO 2002/28414) to induce a CTL were examined using PBMCs from HLA-A*1101-positive healthy donors 1-3 according to the method as described above."}}, "note": "Like-named read-outs stand apart in the source and are kept apart here. No end group written: not given here.", "data": [{"substance": "SLGEQQYSV (listed as Homo sapiens) [WH187 peptide]", "values": [{"measurement": "induction of WT1-specific CTLs", "setting": "[1]", "value": "WT1-specific CTLs are induced"}]}, {"substance": "CMTWNQMNL (listed as Homo sapiens) [WT1235, WT1 peptide that matches HLA-A*2402]", "values": [{"measurement": "induction of WT1-specific CTLs", "setting": "human cells", "value": "WT1-specific CTLs (TAK-1) are induced"}]}, {"substance": "AAGSSSSVK [WT1251]", "values": [{"measurement": "cytotoxic activity of induced CTLs against cells expressing WT1 gene endogenously", "setting": "B-LCLs expressing WT1 [2]", "value": "have a cytotoxic activity against cells expressing WT1 gene endogenously"}, {"measurement": "cytotoxic activity of induced CTLs against BLCL-Ps as compared with BLCL-NPs", "setting": "[3]", "value": "damage specifically BLCL-Ps"}]}, {"substance": "SHLQMNSRK [WT1338]", "values": [{"measurement": "cytotoxic activity of induced CTLs against cells expressing WT1 gene endogenously", "setting": "B-LCLs expressing WT1 [4]", "value": "have a cytotoxic activity against cells expressing WT1 gene endogenously"}]}, {"substance": "KTCQRKFSR [WT1386]", "values": [{"measurement": "cytotoxic activity of induced CTLs against cells expressing WT1 gene endogenously", "setting": "B-LCLs expressing WT1 [4]", "value": "have a cytotoxic activity against cells expressing WT1 gene endogenously"}]}, {"substance": "PILCGAQYR [WT1279]", "values": [{"measurement": "cytotoxic activity of induced CTLs against cells expressing WT1 gene endogenously", "setting": "B-LCLs expressing WT1 [4]", "value": "have a cytotoxic activity against cells expressing WT1 gene endogenously"}]}, {"substance": "WT1379 peptide: known peptide disclosed in WO 2002/28414; differs from WT1378 peptide by one amino acid in the WT1 protein sequence (GVKPFQCKT; listed as Homo sapiens)", "values": [{"measurement": "ability to induce a CTL", "setting": "[5]", "value": "much lower than that of WT1378 peptide"}]}, {"substance": "SASETSEKR [WT1313]", "values": [{"measurement": "cytotoxic activity of induced CTLs against cells expressing WT1 gene endogenously", "setting": "B-LCLs expressing WT1 [4]", "value": "have a cytotoxic activity against cells expressing WT1 gene endogenously"}]}]}
